From US9993462B2, “Hydantoin derivative-containing pharmaceutical composition” (Chugai Seiyaku Kabushiki Kaisha, priority 2014, dated 2018)

What was measured:
[1] = test system: TPTX rat; experiment: Calcemic action in the TPTX rat model; format: in vivo; conditions: TPTX rats, 30 mg/kg oral; for change of serum Ca concentration from the Pre-value (in words): up to 24 hours after administration
Method: Four-week old female Crl:CD(SD) rats were obtained from Charles River Japan (Atsugi Breeding Center), and were acclimated to standard laboratory conditions of 20-26° C. and 35-75% humidity for one week. The rats were given tap water and were fed ad libitum with standard rodent chow (CE-2) (CLEA Japan, Inc.) containing 1.1% calcium, 1.0% phosphoric acid, and 250 IU/100 g of vitamin D3.
TPTX was performed on five-week old rats. Some of the individuals were subjected to sham operation (Sham). Individuals whose serum Ca concentration was less than 8 mg/dL on four days after the operation were selected for use as TPTX rats. On five days after the operation, the rats were assigned to eight TPTX groups and one Sham group (n=5, each group) based on their body weight and serum Ca concentration measured on four days after the operation. The solvent alone was orally administered to the Sham group and the TPTX-Vehicle group at a volume of 10 mL/kg. Each test article was orally administered individually to each TPTX test article group by dissolving it in a solvent at a dose of 30 mg/10 mL/kg. The solvent composition was 10% dimethylsulfoxide (Wako Pure Chemical Industries, Ltd.), 10% Cremophor EL (Sigma-Aldrich Japan LLC), 20% hydroxypropyl-β-cyclodextrin (Nihon Shokuhin Kako Co., Ltd.), glycine (Wako Pure Chemical Industries, Ltd.); and the pH was adjusted to 10. Immediately before administration of each sample, Pre-blood collection was performed, and blood collection was carried out at 2, 6, 10, and 24 hours after administration to measure the serum Ca concentration. Each blood collection was carried out from the jugular vein under isoflurane inhalation anesthesia.
Serum Ca measurement: Serum obtained by centrifugation from the collected blood was measured by using an automatic analyzer TBA-120FR (Toshiba Medical Systems Corporation).
For statistical analysis of the animal studies, data are shown as mean±standard error (SE). Statistical analysis were performed by unpaired test of the SAS Preclinical Package (Ver. 5.00.010720, SAS Institute Japan, Tokyo, Japan).

[2] = target: T1, human PTH1R (Homo sapiens, UniProt Q03431); experiment: In vitro cAMP signal activity via the human PTH1R (HKRK-B7 cells); format: cell-based; conditions: human PTH(1-34) at 100 nM = 100%; for EC20: concentration at 20% cAMP signaling activity
T1 construct: expressed in transfected cells; host or cells: HKRK-B7 (LLC-PK1 porcine kidney cells stably expressing human PTH1R)
T1 sequence (Q03431 27-593): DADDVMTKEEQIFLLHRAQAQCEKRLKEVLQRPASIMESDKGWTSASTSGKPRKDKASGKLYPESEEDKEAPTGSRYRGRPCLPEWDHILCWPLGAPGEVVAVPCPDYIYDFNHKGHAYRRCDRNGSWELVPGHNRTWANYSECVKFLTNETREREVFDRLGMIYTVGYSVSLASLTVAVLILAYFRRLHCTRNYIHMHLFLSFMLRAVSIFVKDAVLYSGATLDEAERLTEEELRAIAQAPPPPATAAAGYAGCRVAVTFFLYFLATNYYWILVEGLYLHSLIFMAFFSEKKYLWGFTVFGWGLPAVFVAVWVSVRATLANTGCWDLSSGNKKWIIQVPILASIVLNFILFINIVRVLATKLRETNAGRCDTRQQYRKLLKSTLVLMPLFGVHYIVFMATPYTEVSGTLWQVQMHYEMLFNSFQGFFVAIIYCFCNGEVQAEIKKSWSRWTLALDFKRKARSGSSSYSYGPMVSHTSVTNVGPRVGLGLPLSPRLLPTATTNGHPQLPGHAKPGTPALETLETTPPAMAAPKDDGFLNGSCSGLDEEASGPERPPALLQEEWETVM
Method: Human PTH(1-34) and calcitonin were purchased from Peptide Institute, Inc. (Osaka, Japan), dissolved in 10 mM acetic acid to 1 mM and stored in a −80° C. freezer.
Cells were cultured in Dulbecco's modified Eagle's medium (DMEM) supplemented with 10% fetal bovine serum (Hyclone), 100 units/ml penicillin G and 100 μg/ml streptomycin sulfate (Invitrogen Corp) at 37° C. in a humidified atmosphere containing 5% CO2.
cAMP signal transduction analysis utilized LLC-PK1 cells not expressing the PTH1R, and HKRK-B7 cells, that is, LLC-PK1 cells overexpressing the human PTH1R at 9.5×10^5 receptors/cell (Takasu et al., J. Bone. Miner. Res. 14:11-20, 1999).
HKRK-B7 or LLC-PK1 cells were seeded into a 96-well plate at 1×10^5 cells/well and incubated overnight. On the following day, 50 μl of cAMP assay buffer (DMEM, 2 mM IBMX, 0.2 mg/ml bovine serum albumin, 35 mM Hepes-NaOH, pH 7.4) containing human PTH(1-34) or each compound was added and the plate was placed in a 37° C. incubator. The cells were incubated for 20 minutes. After removing the medium, the cells were washed with 100 μl of cAMP assay buffer once. The plate was placed on dry ice powder to freeze the cells and then removed from the dry ice. The cells were lysed with 40 μl of 50 mM HCl and frozen again on dry ice. The amount of intracellular cAMP produced was measured using a commercially available cAMP EIA kit (Biotrack cAMP EIA system, GE health care).
Analyses were performed using a variable gradient S-shaped dose-response curve equation.

[3] = test system: rat hepatocyte; experiment: Metabolic stability using rat hepatocyte; format: in vitro ADME
Method: Liver cells were prepared from the liver of rats (SD, female) by a collagenase perfusion method. A compound of the Reference Examples or a Comparative Example was added, and this was incubated at 37° C. for a specified amount of time, followed by addition of a reaction-stopping solution. The concentration of the parent compound at each reaction time was measured using LC/MS/MS, and inherent clearance (μL/10^6 cells/min) was calculated from the slope of the reaction time versus residual rate.
• Cell concentration: 1×10^6 cells/mL • Compound concentration: 1 μM • Medium: Williams' medium E • Reaction time: 0, 15, 30, 60, 120, and 240 minutes • Reaction-stopping solution: acetonitrile/2-propanol (4/6, v/v)

Structure (SMILES) | achievement of the therapeutic target range of serum Ca concentration of 7.6 to 8.8 mg/dL [1] | change of serum Ca concentration from the Pre-value (in words) [1] | EC20 [2] | rat hepatocyte metabolic stability compared to Comparative Examples 1, 2, 3, 5, and 6 (in words) [3] | EC50 ([2]; concentration at 50% cAMP signaling activity)
Cc1cc(N2C(=O)CNC2=O)cc(C)c1CCS(=O)(=O)N1CCC2(CC1)N=C(c1cccc(OC(F)(F)F)c1)NC2=O [Comparative Example 2, reference compound] | could not be achieved | smaller positive changes from the Pre-value | 3100 nM |  | 
Cc1cc(N2C(=O)CNC2=O)cc(C)c1CCS(=O)(=O)N1CCC2(CC1)N=C(c1ccc(F)c(C(F)(F)F)c1)NC2=O [Comparative Example 3, reference compound] |  |  | 2000 nM |  | 
CCC1CCC(C2=NC3(CCN(S(=O)(=O)CCc4ccc(N5CC(=O)NC5=O)cc4C)CC3)C(=O)N2)CC1 (stereo not drawn) [Comparative Example 4, reference compound] |  |  | >505000 nM |  | 
CC[C@H]1CC[C@H](C2=NC3(CCN(S(=O)(=O)CCc4ccc(N5C(=O)NC(=O)C5C)cc4C)CC3)C(=O)N2)CC1 (stereo partly drawn) [Comparative Example 5, reference compound] |  |  | 3100 nM |  | 
CC[C@H]1CC[C@H](C2=NC3(CCN(S(=O)(=O)CCc4ccc(N5C(=O)NC(=O)C5(C)C)cc4C)CC3)C(=O)N2)CC1 [Comparative Example 6, reference compound] |  |  | 3600 nM |  | 
Cc1cc(N2C(=O)NC(=O)C2(C)C)cc(C)c1CCS(=O)(=O)N1CCC2(CC1)N=C(c1ccc(F)c(OC(F)(F)F)c1)NC2=O [Compound 1, 1-(4-(2-((2-(4-fluoro-3-(trifluoromethoxy)phenyl)-4-oxo-1,3,8-triazaspiro[4.5]deca-1-en-8-yl)sulfonyl)ethyl)-3,5-dimethylphenyl)-5,5-dimethylimidazolidine-2,4-dione] | could not be achieved | smaller positive changes from the Pre-value | 1300 nM |  | 
Cc1cc(N2C(=O)NC(=O)C2(C)C)cc(C)c1CCS(=O)(=O)N1CCC2(CC1)N=C(c1cccc(Br)c1)NC2=O [Compound 2, 1-(4-(2-((2-(3-bromophenyl)-4-oxo-1,3,8-triazaspiro[4.5]deca-1-en-8-yl)sulfonyl)ethyl)-3,5-dimethylphenyl)-5,5-dimethylimidazolidine-2,4-dione] |  |  | 2400 nM | increased | 
Cc1cc(N2C(=O)NC(=O)C2(C)C)cc(C)c1CCS(=O)(=O)N1CCC2(CC1)N=C(c1ccc(F)c(C(F)(F)F)c1)NC2=O [Compound 3, 1-(4-(2-((2-(4-fluoro-3-(trifluoromethyl)phenyl)-4-oxo-1,3,8-triazaspiro[4.5]deca-1-en-8-yl)sulfonyl)ethyl)-3,5-dimethylphenyl)-5,5-dimethylimidazolidine-2,4-dione] |  |  | 1500 nM |  | 7200 nM
Cc1cc(N2C(=O)NC(=O)C2(C)C)cc(C)c1CCS(=O)(=O)N1CCC2(CC1)N=C(c1ccc(OC(F)(F)F)c(F)c1)NC2=O [Compound 4, 1-(4-(2-((2-(3-fluoro-4-(trifluoromethoxy)phenyl)-4-oxo-1,3,8-triazaspiro[4.5]deca-1-en-8-yl)sulfonyl)ethyl)-3,5-dimethylphenyl)-5,5-dimethylimidazolidine-2,4-dione] |  |  | 1600 nM | increased | 
Cc1cc(N2C(=O)NC(=O)C2(C)C)cc(C)c1CCS(=O)(=O)N1CCC2(CC1)N=C(c1ccc3c(c1)OC(F)(F)O3)NC2=O [Compound 5, 1-(4-(2-((2-(2,2-difluorobenzo[d][1,3]dioxol-5-yl)-4-oxo-1,3,8-triazaspiro[4.5]deca-1-en-8-yl)sulfonyl)ethyl)-3,5-dimethylphenyl)-5,5-dimethylimidazolidine-2,4-dione] |  |  | 1700 nM | increased | 
Cc1cc(N2C(=O)NC(=O)C2(C)C)cc(C)c1CCS(=O)(=O)N1CCC2(CC1)N=C(c1cccc(C(F)(F)F)c1)NC2=O [Compound 6, 1-(3,5-dimethyl-4-(2-((4-oxo-2-(3-(trifluoromethyl)phenyl)-1,3,8-triazaspiro[4.5]deca-1-en-8-yl)sulfonyl)ethyl)phenyl)-5,5-dimethylimidazolidine-2,4-dione] | achieved the therapeutic target range | large positive changes from the Pre-value | 2000 nM | increased | 
Cc1cc(N2C(=O)NC(=O)C23CCN(C)CC3)cc(C)c1CCS(=O)(=O)N1CCC2(CC1)N=C(c1ccc(OC(F)(F)F)cc1)NC2=O [Compound 9, 1-(3,5-dimethyl-4-(2-((4-oxo-2-(4-(trifluoromethoxy)phenyl)-1,3,8-triazaspiro[4.5]deca-1-en-8-yl)sulfonyl)ethyl)phenyl)-8-methyl-1,3,8-triazaspiro[4.5]decane-2,4-dione] |  |  | 2600 nM | increased | 
